In US9650616B2, “Methods for increasing grain yield” (University of Florida Research Foundation, Inc., priority 2014, dated 2017):
Like-named read-outs stand apart in the source and are kept apart here.

Experiments:
[1] = molecular target: T1, maize endosperm AGPase, large subunit variant GGRA (Q96G, D161G, A443R, Q289A; numbering of SEQ ID NO: 20) (Zea mays, UniProt P55241+Q84PF5, A443R/D161G/Q289A/Q96G); test: Apparent kinetic constants with 3-PGA, 37° C., GGRA; assay type: biochemical; conditions: read-out: ATP Km
T1 sequence (P55241 46-516 A443R/D161G/Q289A/Q96G): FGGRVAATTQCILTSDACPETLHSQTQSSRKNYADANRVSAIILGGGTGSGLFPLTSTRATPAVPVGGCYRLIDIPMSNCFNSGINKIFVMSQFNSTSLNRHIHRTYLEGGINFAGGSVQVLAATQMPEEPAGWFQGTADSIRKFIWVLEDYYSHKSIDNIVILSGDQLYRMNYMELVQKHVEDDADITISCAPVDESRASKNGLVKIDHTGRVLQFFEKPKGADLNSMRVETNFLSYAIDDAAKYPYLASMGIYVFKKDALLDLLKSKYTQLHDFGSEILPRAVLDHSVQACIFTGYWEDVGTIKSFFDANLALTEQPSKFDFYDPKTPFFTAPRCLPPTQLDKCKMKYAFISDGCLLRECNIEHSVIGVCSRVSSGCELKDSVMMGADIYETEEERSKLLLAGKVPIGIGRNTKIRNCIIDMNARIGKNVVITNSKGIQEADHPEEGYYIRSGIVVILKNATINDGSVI
T1 sequence (Q84PF5 1-474): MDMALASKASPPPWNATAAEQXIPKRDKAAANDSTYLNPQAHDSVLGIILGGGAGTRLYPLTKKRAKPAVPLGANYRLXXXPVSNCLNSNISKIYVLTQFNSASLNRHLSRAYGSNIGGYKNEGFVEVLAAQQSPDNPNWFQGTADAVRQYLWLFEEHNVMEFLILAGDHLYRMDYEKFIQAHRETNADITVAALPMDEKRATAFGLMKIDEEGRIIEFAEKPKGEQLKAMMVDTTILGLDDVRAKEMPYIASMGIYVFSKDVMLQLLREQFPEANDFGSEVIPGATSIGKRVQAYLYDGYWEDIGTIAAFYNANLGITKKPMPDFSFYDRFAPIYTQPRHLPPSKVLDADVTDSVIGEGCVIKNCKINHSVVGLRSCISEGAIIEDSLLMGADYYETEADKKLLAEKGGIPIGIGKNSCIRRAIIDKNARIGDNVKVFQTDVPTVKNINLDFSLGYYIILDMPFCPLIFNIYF
Text: The small and large subunit plasmids of maize endosperm AGPase (pMONcBt2 and pMONcSh2, respectively) (Giroux et al., 1996) were expressed in E. coli AC70R1-504 cells (Iglesias et al., 1993) as previously described (Boehlein et al., 2008).
An endpoint assay was used to determine the rate of the AGPase reaction by coupling the formation of PPi to a decrease in NADH concentration (Boehlein et al., 2008). […] The Michaelis constants (Km) were obtained by varying one substrate in the presence of saturating concentrations of the second substrate. The activation constants were obtained by varying the activator at fixed levels of both substrates. All reactions were performed at 37° C. and mixes were prewarmed before starting the reaction with enzyme. […] The absorbance at 340 nm was monitored after 30 min and the amount of PPi produced was determined from a standard curve using PPi in complete reaction mixtures lacking AGPase. Blank samples contained complete reaction mixtures without enzyme and the change in absorbance between the blank and the reaction was used to calculate the amount of PPi produced. […]
The apparent Michaelis constant and maximum velocity of each reaction was calculated from a V vs. S plots using nonlinear regression analysis and the following equation, v=VmaxS/(Km+S), where v is the measured velocity, Vmax is the maximum velocity, S is the substrate concentration. […]

[2] = test system: maize endosperm AGPase, wild type; conditions: cited from earlier work

In the case of `Nc1ncnc2c1ncn2[C@@H]1O[C@H](COP(=O)(O)OP(=O)(O)OP(=O)(O)O)[C@@H](O)[C@H]1O` [ATP], the Km [1] is given as 0.057 mM, the Km ([2]; Maize wt, absence of 3-PGA, ATP varied, Pi inhibition, P-MT, read-out: Km (ATP)) is given as 20.4 mM and the Km ([2]; wt maize AGPase, absence of activator, Pi inhibition assay, read-out: Km for both substrates) is given as > 20 mM.
